Experiments:
CCK1 (CCKA) (h) = biological target: T1, CCK1 (CCKA) (h) (Homo sapiens, UniProt P32238); assay: biochemical; set-up: Eurofins SafetyScreen44 radioligand displacement, inhibition of control specific binding; conditions: read-out: % Inhibition of Control Specific Binding, Mean
T1 construct: gene CCKAR

COX2(h) = biological target: T2, COX2(h) (Homo sapiens, UniProt P35354); assay: biochemical; set-up: Eurofins SafetyScreen44 enzyme assays, inhibition of control specific activity; conditions: read-out: % Inhibition of Control Values, Mean
T2 construct: gene PTGS2
T2 sequence (P35354 whole entry): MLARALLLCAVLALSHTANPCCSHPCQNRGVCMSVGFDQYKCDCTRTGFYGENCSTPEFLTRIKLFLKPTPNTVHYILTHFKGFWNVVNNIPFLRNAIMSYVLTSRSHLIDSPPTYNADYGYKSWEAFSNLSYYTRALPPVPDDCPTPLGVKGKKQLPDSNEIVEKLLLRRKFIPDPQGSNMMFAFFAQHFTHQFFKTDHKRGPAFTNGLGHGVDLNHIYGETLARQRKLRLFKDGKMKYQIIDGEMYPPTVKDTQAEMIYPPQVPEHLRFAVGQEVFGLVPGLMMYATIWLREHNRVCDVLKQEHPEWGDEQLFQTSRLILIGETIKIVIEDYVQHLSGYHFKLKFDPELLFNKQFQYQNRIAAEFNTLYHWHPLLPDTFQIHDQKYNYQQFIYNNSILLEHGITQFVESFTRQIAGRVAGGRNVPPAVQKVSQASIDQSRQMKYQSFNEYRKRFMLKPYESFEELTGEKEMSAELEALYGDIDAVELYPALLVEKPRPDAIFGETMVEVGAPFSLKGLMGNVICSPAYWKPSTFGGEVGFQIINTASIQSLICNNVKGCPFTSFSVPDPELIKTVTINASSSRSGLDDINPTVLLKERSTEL

adrenergic receptor α1A = biological target: T3, adrenergic receptor α1A (Homo sapiens, UniProt P35348); assay: SafetyScreen44 panel (Eurofins), single concentration […]; conditions: read-out: % inhibition at 10 μM
T3 construct: gene ADRA1A
T3 sequence (P35348 1-466): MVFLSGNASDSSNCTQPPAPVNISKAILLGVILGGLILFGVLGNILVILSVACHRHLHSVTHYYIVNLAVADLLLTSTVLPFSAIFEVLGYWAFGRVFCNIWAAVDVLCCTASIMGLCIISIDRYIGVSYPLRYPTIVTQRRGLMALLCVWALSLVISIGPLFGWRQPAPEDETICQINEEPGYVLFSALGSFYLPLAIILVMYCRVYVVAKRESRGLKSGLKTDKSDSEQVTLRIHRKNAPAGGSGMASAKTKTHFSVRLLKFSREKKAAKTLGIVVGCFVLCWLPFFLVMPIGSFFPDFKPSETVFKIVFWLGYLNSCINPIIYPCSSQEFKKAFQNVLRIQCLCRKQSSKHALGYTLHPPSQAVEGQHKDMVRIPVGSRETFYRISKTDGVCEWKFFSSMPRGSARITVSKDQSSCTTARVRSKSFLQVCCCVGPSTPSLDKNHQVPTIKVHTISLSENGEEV

adrenergic receptor α2A = biological target: T4, adrenergic receptor α2A (Homo sapiens, UniProt P08913); assay: as above; conditions: read-out: % inhibition at 10 μM
T4 construct: gene ADRA2A
T4 sequence (P08913 whole entry): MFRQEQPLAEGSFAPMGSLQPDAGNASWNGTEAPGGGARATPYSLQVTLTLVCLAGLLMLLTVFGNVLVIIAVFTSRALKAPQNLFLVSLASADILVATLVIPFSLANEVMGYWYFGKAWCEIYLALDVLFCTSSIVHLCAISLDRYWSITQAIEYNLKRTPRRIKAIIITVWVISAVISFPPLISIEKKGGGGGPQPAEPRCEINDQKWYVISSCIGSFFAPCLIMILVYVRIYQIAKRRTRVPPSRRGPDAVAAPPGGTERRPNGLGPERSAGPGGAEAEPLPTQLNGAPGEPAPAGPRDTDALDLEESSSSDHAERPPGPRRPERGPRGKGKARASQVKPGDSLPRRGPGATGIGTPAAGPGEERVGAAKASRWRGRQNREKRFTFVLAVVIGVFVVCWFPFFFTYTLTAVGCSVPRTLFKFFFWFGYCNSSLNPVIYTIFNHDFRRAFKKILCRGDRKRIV

T1 sequence (P32238 whole entry): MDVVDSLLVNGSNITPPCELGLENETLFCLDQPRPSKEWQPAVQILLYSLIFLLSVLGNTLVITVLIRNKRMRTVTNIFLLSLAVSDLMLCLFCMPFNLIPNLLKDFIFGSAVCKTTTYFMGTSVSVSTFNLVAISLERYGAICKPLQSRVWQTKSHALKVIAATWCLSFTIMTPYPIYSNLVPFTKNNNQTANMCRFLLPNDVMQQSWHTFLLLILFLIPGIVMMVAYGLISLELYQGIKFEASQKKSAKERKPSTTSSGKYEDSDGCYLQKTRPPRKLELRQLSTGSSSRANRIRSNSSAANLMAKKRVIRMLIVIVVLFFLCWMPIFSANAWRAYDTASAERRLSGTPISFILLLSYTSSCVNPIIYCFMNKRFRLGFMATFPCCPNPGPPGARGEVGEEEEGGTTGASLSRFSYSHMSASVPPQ

## COCCN(CC1CCCN(Cc2ccccc2)C1)S(=O)(=O)c1ccc2ccccc2c1 (racemic) [compound 4, (±)N-((1-benzylpiperidin-3-yl)methyl)-N-(2-methoxyethyl)naphthalene-2-sulfonamide]
CCK1 (CCKA) (h)
  inhibition at 10 µM: 21.9%
COX2(h)
  inhibition at 10 µM: 2.2%
Adrenergic receptor α1A
  inhibition at 10 µM: 71.7%
Adrenergic receptor α2A
  inhibition at 10 µM: 60.9%

Source: PMC8120209, “Longitudinal evaluation of a novel BChE PET tracer as an early in vivo biomarker in the brain of a mouse model for Alzheimer disease” (Theranostics, 2021)
